≈ marks a conversion by molar mass, not a printed value.
Columns and labels:
[1] = biological target: T1, glucocerebrosidase (Gcase) (Homo sapiens, UniProt P04062); assay: Glucocerebrosidase (Gcase) activation assay, 4-methylumbelliferyl-beta-D-glucopyranoside substrate, with saposin C; assay type: biochemical; conditions: 0.25 h; for activation at 0.1 µM: read-out: Percent Gcase Activation 0.1 μM Test Compound; for activation at 1 µM: read-out: Percent Gcase Activation 1 μM Test Compound
T1 construct: micellar solution containing 10 nM GCase and 100 nM saposin C
T1 sequence (P04062 40-536): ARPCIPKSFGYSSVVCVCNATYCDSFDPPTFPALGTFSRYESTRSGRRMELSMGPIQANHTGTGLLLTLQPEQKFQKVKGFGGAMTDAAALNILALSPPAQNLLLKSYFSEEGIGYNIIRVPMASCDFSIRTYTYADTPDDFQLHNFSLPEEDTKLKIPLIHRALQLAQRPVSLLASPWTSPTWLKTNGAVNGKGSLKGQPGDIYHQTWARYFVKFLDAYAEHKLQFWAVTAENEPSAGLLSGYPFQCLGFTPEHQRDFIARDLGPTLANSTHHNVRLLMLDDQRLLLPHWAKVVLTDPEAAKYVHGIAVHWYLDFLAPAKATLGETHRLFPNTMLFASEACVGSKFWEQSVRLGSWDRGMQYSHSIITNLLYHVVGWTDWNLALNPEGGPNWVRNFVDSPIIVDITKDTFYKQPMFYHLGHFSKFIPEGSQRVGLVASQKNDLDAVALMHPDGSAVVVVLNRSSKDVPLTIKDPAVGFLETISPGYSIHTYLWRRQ
Procedure, shortened: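 Human GCase (10 nM) with 100 nM saposin C in Triton X-100/phosphatidylserine micelles, citrate-phosphate pH 4.7, preincubated with compound 30 min RT; 2 mM 4-MU-β-glucoside (substrate solution) added, 15 min RT, stopped with glycine pH 12.5, fluorescence 365/440 nm. Screened at 1.0 and 0.1 μM; 8-point curves from 5 μM top.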

[2] = Compound solubility in water; assay type: physicochemical

| activation at 0.1 µM [1] | activation at 1 µM [1] | solubility [2] | Structure (SMILES) |
| --- | --- | --- | --- |
| 5 to 20% | > 20% | 23.1 µg/mL (≈ 62 µM) | CCCCCCOC1CCC(NC(=O)c2ncc3c(C)cc(C)nn23)CC1 (stereo not drawn) |
| < 5% | 5 to 20% | 0.7 µg/mL (≈ 1.99 µM) | Cc1cc(-c2cccnc2)nc2c(C(=O)NC(C)(C)C3CC3)nsc12 |

Source: US11168087B2, “Substituted imidazo[1,2-b]pyridazines, substituted imidazo[1,5-b]pyridazines, related compounds, and their use in the treatment of medical disorders” (BIAL—R&D Investments, S.A., priority 2016, dated 2021)
